Consider twelve compounds from ChEMBL document CHEMBL1201862, “PubChem BioAssay data set” (2004).

Among the test systems are HCT-15; EKVX; SW-620; NCI-H460; A498; SF-268; M14; OVCAR-8; DU-145; SK-MEL-5; PC-3; OVCAR-4; TK-10; UACC-62; COLO 205; SNB-19; HT-29; SF-295; T47D.
Test in all cases: growth of human tumour cells (NCI), 48 h

The structures appear in SMILES notation.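 1) Cells in 96-well plates. 2) Compound, 48 h, 5 concentrations. 3) Linear interpolation between surrounding doses. 4) Unreached endpoint = highest concentration. At the GI50, growth is halved.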 Calls of active or inactive are those of the source. Cut-off read from the data, not from the text of the source: active = GI50 up to about 1.1 µM and inactive = higher.

As to `C1COCCN1.CN(C)c1ccc(-c2c(C#N)c(N)nc(S)c2C#N)cc1`, the GI50 in the assay on HCT-15 is over 100 µM; with EKVX, > 100 µM (inactive); in the assay on SW-620 it was 63 µM (inactive); in the assay with NCI-H460, 40.2 µM (inactive); in the assay on A498 it was 24.9 µM (inactive); in the assay with SF-268 it was > 100 µM (inactive). Moreover, the GI50 in the assay on M14 was 34 µM (inactive); in the assay with OVCAR-8 it was > 100 µM (inactive); with DU-145, > 100 µM (inactive); with SK-MEL-5, 44.7 µM (inactive); in the assay with PC-3, 30.5 µM (inactive); in the assay on OVCAR-4, 35 µM (inactive). Besides, the GI50 with TK-10 is > 100 µM (inactive); in the assay on UACC-62, 35 µM (inactive); with COLO 205, > 100 µM (inactive); with SNB-19, 39.9 µM (inactive); in the assay on HT-29, > 100 µM (inactive); with SF-295 it was 61 µM (inactive).

Turning to `CN(C)CCNC(=O)c1cccc2c(Nc3ccc(S(N)(=O)=O)cc3)c3ccccc3nc12`, the GI50 was 1.83 µM in the assay with HCT-15; 3.05 µM (inactive) with EKVX; 0.367 µM (active) with SW-620; 0.337 µM (active) in the assay on NCI-H460; 1.69 µM (inactive) in the assay on A498; 0.746 µM (active) in the assay on SF-268. Also, the GI50 in the assay on M14 was 1.67 µM (inactive); with OVCAR-8 it was 0.435 µM (active); in the assay on SK-MEL-5, 1.67 µM (inactive); in the assay with OVCAR-4 it was 1.7 µM (inactive); in the assay with TK-10 it was 1.97 µM (inactive); in the assay on UACC-62 it was 1.42 µM (inactive). For the same compound, the GI50 in the assay on COLO 205 was 0.391 µM (active); with SNB-19, 1.05 µM (active); in the assay on HT-29 it was 1.26 µM (inactive); in the assay with SF-295, 2.01 µM (inactive).

With `Cc1ccc(N/C(=C(/C(Cl)=C(Cl)Cl)[N+](=O)[O-])n2nnc3ccccc32)cc1`, the GI50 in the assay with HCT-15 is 24.3 µM; with EKVX, 19.1 µM (inactive); in the assay with SW-620, 20.7 µM (inactive); in the assay on T47D it was 22.5 µM (inactive); in the assay with NCI-H460, 18 µM (inactive); in the assay on SF-268 it was 18.8 µM (inactive). Moreover, the GI50 with M14 is 16.6 µM (inactive); in the assay on OVCAR-8, 18.8 µM (inactive); in the assay with PC-3, 17.5 µM (inactive); in the assay with OVCAR-4 it was 18.7 µM (inactive); in the assay with COLO 205 it was 15.1 µM (inactive); in the assay with SNB-19 it was 18.3 µM (inactive). In addition, the GI50 in the assay with HT-29 is 22 µM (inactive); with SF-295 it was 20.1 µM (inactive).

Take `CC(C)CC(NC(=O)C(C)(CI)Cc1ccccc1)C(=O)Nc1ccccc1` (configuration not stated): the GI50 with HCT-15 is over 100 µM; in the assay on EKVX it was > 100 µM (inactive); in the assay on SW-620, > 100 µM (inactive); with NCI-H460, > 100 µM (inactive); in the assay with A498 it was > 100 µM (inactive); in the assay on M14, > 100 µM (inactive). In addition, the GI50 in the assay on OVCAR-8, in the assay on DU-145, in the assay with SK-MEL-5, in the assay with PC-3, in the assay on OVCAR-4 and in the assay with TK-10 was > 100 µM (inactive) in each case. Besides, the GI50 in the assay with UACC-62, with COLO 205, with SNB-19 and in the assay with SF-295 was > 100 µM (inactive) throughout.

For `N#CC12C3C4CC5C6C4C1C6C(O)(C53)N2Cc1ccccc1` (configuration not stated), the GI50 is over 100 µM in the assay with HCT-15; > 100 µM (inactive) in the assay with EKVX; > 100 µM (inactive) in the assay on SW-620; > 100 µM (inactive) in the assay on NCI-H460; > 100 µM (inactive) with A498; > 100 µM (inactive) with SF-268. Also, the GI50 in the assay on M14, with OVCAR-8, with SK-MEL-5, with OVCAR-4, in the assay on TK-10 and with UACC-62 was > 100 µM (inactive) each time. Further, the GI50 in the assay with COLO 205, with SNB-19, in the assay with HT-29 and in the assay on SF-295 was > 100 µM (inactive) in each case.

For the compound `O=C(O)/C=C/c1ccc2c(c1)CC1(Cc3ccccc3C1)C2`, the GI50 in the assay with HCT-15 is 40.3 µM; with EKVX it was > 100 µM (inactive); with T47D, > 100 µM (inactive); with A498, 75.3 µM (inactive); in the assay on M14, 48.1 µM (inactive); in the assay with OVCAR-8, 66.1 µM (inactive). Also, the GI50 with SK-MEL-5 was 43.5 µM (inactive); in the assay on PC-3, 53.6 µM (inactive); with OVCAR-4 it was 39 µM (inactive); in the assay on TK-10, > 100 µM (inactive); in the assay with UACC-62 it was > 100 µM (inactive); in the assay on COLO 205, 27.8 µM (inactive). For the same compound, the results for the GI50 with HT-29 and in the assay with SF-295 were 39.8 µM (inactive) and 36.1 µM (inactive), respectively.

With `CC(C)CC(=O)NC(C(=O)NC(C(=O)NC(CC(C)C)C(O)CC(=O)NC(C)C(=O)NC(CC(C)C)C(O)CC(=O)O)C(C)C)C(C)C` (configuration not stated), the GI50 is over 100 µM in the assay with HCT-15; > 100 µM (inactive) in the assay with EKVX; > 100 µM (inactive) in the assay on SW-620; > 100 µM (inactive) with NCI-H460; > 100 µM (inactive) with A498; > 100 µM (inactive) in the assay with SF-268. In addition, the GI50 in the assay with M14, in the assay on OVCAR-8, in the assay on DU-145, in the assay on SK-MEL-5, in the assay with PC-3 and in the assay on OVCAR-4 was > 100 µM (inactive) in each case. Besides, the GI50 in the assay with TK-10, in the assay with UACC-62, with COLO 205, in the assay on SNB-19, with HT-29 and in the assay on SF-295 was > 100 µM (inactive) in each case.

In the case of `Cc1ccc(NC(=O)CCc2cc(C(C)(C)C)nc(S)n2)cc1C`, the GI50 is over 100 µM with HCT-15; > 100 µM (inactive) with EKVX; > 100 µM (inactive) in the assay with SW-620; > 100 µM (inactive) in the assay with NCI-H460; > 100 µM (inactive) in the assay on A498; > 100 µM (inactive) in the assay on SF-268. The GI50 in the assay on M14, in the assay with OVCAR-8, in the assay with SK-MEL-5, in the assay with TK-10, in the assay on UACC-62 and with COLO 205 was > 100 µM (inactive) throughout. Moreover, the GI50 in the assay with SNB-19, in the assay on HT-29 and with SF-295 was > 100 µM (inactive) each time.

Turning to `O=c1oc2ccccc2n1CCCn1c(=O)oc2ccccc21`, the GI50 with HCT-15 was over 100 µM; in the assay on EKVX, > 100 µM (inactive); in the assay on SW-620 it was > 100 µM (inactive); in the assay on NCI-H460, > 100 µM (inactive); with A498, > 100 µM (inactive); in the assay on SF-268, > 100 µM (inactive). In addition, the GI50 in the assay on M14, in the assay with OVCAR-8, in the assay on DU-145, in the assay with SK-MEL-5, in the assay with PC-3 and in the assay on TK-10 was > 100 µM (inactive) throughout. In addition, the GI50 in the assay with UACC-62, in the assay with COLO 205, in the assay with SNB-19, with HT-29 and in the assay with SF-295 was > 100 µM (inactive) each time.

As for `Cc1cnoc1NS(=O)(=O)c1ccc(Nc2nnc(/C=C/c3c(O)ccc4ccccc34)c(=O)n2N)cc1`, the GI50 in the assay on HCT-15 is 6.37 µM; in the assay on EKVX it was 35.9 µM (inactive); in the assay on SW-620, 32.7 µM (inactive); in the assay with T47D, 20.1 µM (inactive); with SF-268, 11.3 µM (inactive); in the assay with M14, 25.9 µM (inactive). Further, the GI50 in the assay on OVCAR-8 is 16.4 µM (inactive); in the assay with DU-145 it was 43.8 µM (inactive); in the assay with OVCAR-4, 27.9 µM (inactive); with UACC-62 it was 24.5 µM (inactive); in the assay with SNB-19 it was 65.2 µM (inactive); in the assay on HT-29 it was 58.6 µM (inactive). Also, in the assay with SF-295, the GI50 is 64 µM (inactive).

For the compound `COc1cc2oc(=O)cc(C)c2c(OC)c1O`, the GI50 with HCT-15 was over 100 µM; in the assay with EKVX, > 100 µM (inactive); in the assay on SW-620 it was > 100 µM (inactive); in the assay on A498 it was 26.1 µM (inactive); in the assay with SF-268, > 100 µM (inactive); with M14, > 100 µM (inactive). The GI50 in the assay on OVCAR-8, with DU-145, in the assay with SK-MEL-5, in the assay on PC-3, in the assay on OVCAR-4 and with TK-10 was > 100 µM (inactive) each time. For the same compound, the GI50 in the assay on UACC-62, in the assay with COLO 205, in the assay on SNB-19, with HT-29 and with SF-295 was > 100 µM (inactive) throughout.

On to `O=[N+]([O-])/C(C(Cl)=C(Cl)Cl)=C1\NCCS1`, for which the GI50 in the assay with HCT-15 was 35.6 µM; with EKVX, > 100 µM (inactive); with SW-620, 56 µM (inactive); with NCI-H460, 83.9 µM (inactive); in the assay with A498, 26.1 µM (inactive); in the assay with SF-268, 39.9 µM (inactive). Besides, the GI50 with M14 was 46.9 µM (inactive); with OVCAR-8, 47.2 µM (inactive); in the assay with DU-145 it was > 100 µM (inactive); in the assay with SK-MEL-5, > 100 µM (inactive); in the assay with PC-3, 35.6 µM (inactive); in the assay with OVCAR-4, 29.1 µM (inactive). Further, the GI50 in the assay on TK-10 is > 100 µM (inactive); in the assay on UACC-62, 39.7 µM (inactive); with COLO 205 it was 40.1 µM (inactive); in the assay with SNB-19, > 100 µM (inactive); with HT-29 it was 47.8 µM (inactive); with SF-295, > 100 µM (inactive).
